One assay concerns MKN45 cells. As to the kind of experiment: MKN45 cell proliferation assay (CellTiter-Glo). It counts as cell-based. The settings on record: Homo sapiens, MKN-45, 72 h; MKN45 cell line; 3 days incubation; at least duplicate experiments; read-out: Prolif. IC50. (In ATP-based viability assays light output follows the ATP content of the culture.)
A further assay concerns the target T1, RON (Homo sapiens, UniProt Q04912).
T1 sequence (Q04912 913-1400): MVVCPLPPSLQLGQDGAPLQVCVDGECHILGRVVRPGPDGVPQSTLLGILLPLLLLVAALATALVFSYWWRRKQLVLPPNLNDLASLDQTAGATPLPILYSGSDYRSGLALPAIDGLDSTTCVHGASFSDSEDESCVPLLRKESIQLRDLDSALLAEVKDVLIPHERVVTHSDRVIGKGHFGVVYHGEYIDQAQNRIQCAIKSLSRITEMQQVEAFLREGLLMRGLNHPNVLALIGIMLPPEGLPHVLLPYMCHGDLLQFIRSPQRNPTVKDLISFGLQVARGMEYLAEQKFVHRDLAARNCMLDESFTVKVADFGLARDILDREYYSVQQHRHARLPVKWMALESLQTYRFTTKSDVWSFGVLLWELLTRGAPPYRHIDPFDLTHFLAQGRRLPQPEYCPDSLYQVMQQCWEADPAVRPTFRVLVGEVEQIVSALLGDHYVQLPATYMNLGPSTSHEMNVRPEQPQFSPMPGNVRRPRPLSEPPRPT
As to the kind of experiment: sfRON cell mechanistic assay (HeLa), phosphorylated RON ELISA. It counts as cell-based. The note with it: HeLa cells transfected with sfRON; inhibition of phosphorylated RON; four hours incubation; at least duplicate experiments; read-out: sfRON mech IC50. In outline:
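HeLa cells transiently transfected with sfRON plasmid, then exposed 4 h at 37 °C to a 6-point compound series (typically 10 μM to 3 nM, 0.5% DMSO). Phospho-RON (pY1238/1239) in lysates measured by sandwich ELISA with luminescence. IC50 from 4-parameter fit of percent-of-DMSO-control data, at least duplicate runs.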
(In general: In an ELISA, binding on a coated surface is turned into a signal by an enzyme label.)

pIC50: −log10 of the molar value.

Consider nine compounds from patent US8445510B2, “Fused bicyclic kinase inhibitors” (OSI Pharmaceuticals, LLC, priority 2011, dated 2013).

Take `[2H]C([2H])([2H])c1c(-c2cnc3[nH]cc([C@H](C)c4c(OC(F)F)ccc(F)c4Cl)c3c2)cnn1[C@H]1CC[C@H](O)CC1` [Example 85, trans-4-[4-(3-{(1S)-1-[2-Chloro-6-(difluoromethoxy)-3-fluorophenyl]ethyl}-1H-pyrrolo[2,3-b]pyridin-5-yl)-5-(^2H3)methyl-1H-pyrazol-1-yl]cyclohexanol]: the pIC50 is at least 7.30 with MKN45 cells and 6.00 to 6.70 on RON.

As for `Cc1nn(C[C@H](O)CO)cc1-c1cnc2[nH]cc([C@H](C)c3c(OC(F)F)ccc(F)c3Cl)c2c1` [Example 71, (2S)-3-[4-(3-{(1S)-1-[2-Chloro-6-(difluoromethoxy)-3-fluorophenyl]ethyl}-1H-pyrrolo[2,3-b]pyridin-5-yl)-3-methyl-1H-pyrazol-1-yl]propane-1,2-diol], the pIC50 in the assay with MKN45 cells was at least 7.30; on RON it was at least 6.70.

Regarding `COc1ccc(F)c(Cl)c1[C@@H](C)c1c[nH]c2ncc(-c3cnn([C@H]4CC[C@@H](O)CC4)c3C)cc12` [Example 52, cis-4-(4-{3-[(1S)-1-(2-Chloro-3-fluoro-6-methoxyphenyl)ethyl]-1H-pyrrolo[2,3-b]pyridin-5-yl}-5-methyl-1H-pyrazol-1-yl)cyclohexanol], the results for the negative-log IC50 (pIC50) in the assay with MKN45 cells and on RON were at least 7.30 and 6.00 to 6.70, respectively.

As to `[2H]C([2H])([2H])[C@H](c1c(OC)ccc(F)c1Cl)c1c[nH]c2ncc(-c3cnn([C@H]4CC[C@H](O)CC4)c3C)cc12` [Example 111, trans-4-(4-{3-[(1S)-1-(2-Chloro-3-fluoro-6-methoxyphenyl)(2,2,2-^2H3)ethyl]-1H-pyrrolo[2,3-b]pyridin-5-yl}-5-methyl-1H-pyrazol-1-yl)cyclohexanol], the pIC50 with MKN45 cells is at least 7.30; on RON, 6.00 to 6.70.

Consider `COc1ccc(F)c(Cl)c1[C@@H](C)c1c[nH]c2ncc(-c3cnn([C@H]4CC[C@H](N(C)C)CC4)c3C)cc12` [Example 53, trans-4-(4-{3-[(1S)-1-(2-Chloro-3-fluoro-6-methoxyphenyl)ethyl]-1H-pyrrolo[2,3-b]pyridin-5-yl}-5-methyl-1H-pyrazol-1-yl)-N,N-dimethylcyclohexanamine], for which the pIC50 with MKN45 cells is at least 7.30; at RON, 6.00 to 6.70.

Take `COc1ccc(F)c(Cl)c1[C@@H](C)c1c[nH]c2ncc(-c3cn(C)nc3C#N)cc12` [Example 46, 4-{3-[(1S)-1-(2-Chloro-3-fluoro-6-methoxyphenyl)ethyl]-1H-pyrrolo[2,3-b]pyridin-5-yl}-1-methyl-1H-pyrazole-3-carbonitrile]: the values for the pIC50 in the assay with MKN45 cells and at RON were 6.70 to 7.30 and under 6.00, respectively.

Consider `COc1ccc(F)c(Cl)c1[C@@H](C)c1c[nH]c2ncc(-c3cnn([C@@H]4C[C@@H](O)[C@@H](O)C4)c3C)cc12` [Example 31, (1R,2S,4S)-4-(4-{3-[(1S)-1-(2-Chloro-3-fluoro-6-methoxyphenyl)ethyl]-1H-pyrrolo[2,3-b]pyridin-5-yl}-5-methyl-1H-pyrazol-1-yl)cyclopentane-1,2-diol], for which the pIC50 is at least 7.30 in the assay on MKN45 cells and 6.00 to 6.70 on RON.

In the case of `Cc1c(-c2cnc3[nH]cc(C(C#N)c4c(Cl)ccc(F)c4Cl)c3c2)cnn1[C@H]1CC[C@H](O)CC1` (stereo partly drawn) [Example 108, (2,6-Dichloro-3-fluorophenyl){5-[1-(trans-4-hydroxycyclohexyl)-5-methyl-1H-pyrazol-4-yl]-1H-pyrrolo[2,3-b]pyridin-3-yl}acetonitrile], the figures for the pIC50 with MKN45 cells and at RON were 6.70 to 7.30 and under 6.00, respectively.

In the case of `CCc1nn(CC(C)(C)O)cc1-c1cnc2[nH]cc([C@H](C)c3c(OC(F)F)ccc(F)c3Cl)c2c1` [Example 73, 1-[4-(3-{(1S)-1-[2-Chloro-6-(difluoromethoxy)-3-fluorophenyl]ethyl}-1H-pyrrolo[2,3-b]pyridin-5-yl)-3-ethyl-1H-pyrazol-1-yl]-2-methylpropan-2-ol], the pIC50 was at least 7.30 in the assay on MKN45 cells and 6.00 to 6.70 on RON.

By pIC50 is commonly meant the negative decadic logarithm of the IC50, by convention in mol/L.
